The target of the assay is Histamine H1 receptor (Cavia porcellus, UniProt P31389).
Sequence of Histamine H1 receptor (P31389 whole entry): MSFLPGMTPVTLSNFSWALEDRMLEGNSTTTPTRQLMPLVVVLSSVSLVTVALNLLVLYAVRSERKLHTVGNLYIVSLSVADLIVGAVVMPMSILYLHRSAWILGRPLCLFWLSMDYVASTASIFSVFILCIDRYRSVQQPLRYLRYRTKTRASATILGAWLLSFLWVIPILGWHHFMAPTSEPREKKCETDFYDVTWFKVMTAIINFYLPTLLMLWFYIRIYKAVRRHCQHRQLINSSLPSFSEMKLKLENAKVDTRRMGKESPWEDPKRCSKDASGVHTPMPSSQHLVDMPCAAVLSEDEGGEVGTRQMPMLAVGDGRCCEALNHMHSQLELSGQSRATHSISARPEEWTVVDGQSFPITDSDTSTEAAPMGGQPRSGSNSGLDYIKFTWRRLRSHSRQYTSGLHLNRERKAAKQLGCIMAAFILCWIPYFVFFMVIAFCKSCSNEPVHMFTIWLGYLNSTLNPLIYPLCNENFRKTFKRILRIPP

As usually defined, the Ki is the equilibrium dissociation constant of an inhibitor or competing ligand from its target. Read a high Ki as lower affinity. With `Cc1ccc(C(=CCN2CCCC2)c2ccccn2)cc1` [CAS_486-12-4], the Ki came to 0.93 nM. This lies in the sub-nanomolar range.
